Experimental data reported in ChEMBL document CHEMBL1126269, “Optimization of the quinoline and substituted benzyl moieties of a series of phenyltetrazole leukotriene D4 receptor antagonists” (J Med Chem, 1992).
Several values for one entry are separate records, joined by “and”; a condition that tells them apart may be missing. Equal values may be shown once.

Each molecule was assayed against T1, Cysteinyl leukotriene receptor 1 (Cavia porcellus) (UniProt Q2NNR5) (assay: Antagonistic activity in vitro against leukotriene-D4 (LTD4) induced guinea pig ileum contraction).
T1 sequence (whole entry): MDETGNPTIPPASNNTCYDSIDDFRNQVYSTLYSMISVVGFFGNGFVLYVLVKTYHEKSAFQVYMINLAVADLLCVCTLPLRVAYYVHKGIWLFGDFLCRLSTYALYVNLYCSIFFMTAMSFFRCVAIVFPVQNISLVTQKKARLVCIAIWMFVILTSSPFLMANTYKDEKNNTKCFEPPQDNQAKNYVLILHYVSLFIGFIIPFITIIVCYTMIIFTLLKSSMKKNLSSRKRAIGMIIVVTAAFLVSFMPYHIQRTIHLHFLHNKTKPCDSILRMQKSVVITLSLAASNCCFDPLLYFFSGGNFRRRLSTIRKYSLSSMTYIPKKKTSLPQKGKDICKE
Format: functional, tissue-based

SMILES | pKB
c1cc(OCc2ccc3ccccc3n2)cc(-c2nnn(Cc3ccccc3-c3nn[nH]n3)n2)c1 | 9.1

Each molecule was assayed on Cysteinyl leukotriene receptor (Cavia porcellus) (assay: In vitro inhibition of leukotriene D4 induced contractions of isolated guinea pig ileum.).

SMILES | pKB
COc1cc(C(=O)O)ccc1Cn1nnnc1-c1cccc(/C=C/c2ccc3ccccc3n2)c1 | 8.2
O=C(O)Cc1ccccc1Cn1nnc(-c2cccc(OCc3ccc4ccccc4n3)c2)n1 | 7.6
O=C(O)c1ccccc1Cn1nnc(-c2cccc(OCc3nc4ccccc4s3)c2)n1 | 8.3
O=C(O)c1ccccc1Cn1nnnc1-c1cccc(OCc2ccc3ccccc3n2)c1 | 6.5
O=C(O)Cc1ccccc1Cn1nnc(-c2cccc(/C=C/c3ccc4ccccc4n3)c2)n1 | 7.7
COc1cccc(C(=O)O)c1Cn1nnc(-c2cccc(OCc3ccc4ccccc4n3)c2)n1 | 8.4
O=C(O)c1ccccc1Cn1nnc(-c2cccc(CSc3ccc4ccccc4n3)c2)n1 | 7
O=C(O)c1ccccc1Cn1nnc(-c2cccc(OCc3ccc4ccccc4n3)c2)n1 | 8.3 and 8.4

Second part, the molecule after the results:

pKB | SMILES
7.4 | COc1cc(C(=O)O)ccc1Cn1nnc(-c2cccc(/C=C/c3ccc4ccccc4n3)c2)n1
8.8 | O=C(O)c1ccccc1Cn1nnc(-c2cccc(/C=C/c3ccc4ccc(Cl)cc4n3)c2)n1
9.1 | O=C(O)c1cc(F)ccc1Cn1nnc(-c2cccc(/C=C/c3ccc4ccc(Cl)cc4n3)c2)n1
7.8 | O=C(O)c1sccc1Cn1nnc(-c2cccc(/C=C/c3ccc4ccc(Cl)cc4n3)c2)n1
7.9 | O=C(O)c1ccccc1CCn1nnc(-c2cccc(/C=C/c3ccc4ccc(Cl)cc4n3)c2)n1
7.9 | O=C(O)c1ccoc1Cn1nnc(-c2cccc(/C=C/c3ccc4ccccc4n3)c2)n1
7.1 | O=C(O)c1cccc(Cn2nnc(-c3cccc(/C=C/c4ccc5ccccc5n4)c3)n2)c1
8.5 | O=C(O)c1ccccc1Cn1nnc(-c2cccc(/C=C/c3ccc4ccccc4n3)c2)n1
8.7 | O=C(O)c1ccccc1Cn1nnc(-c2cccc(OCc3ccc4ccc(Cl)cc4n3)c2)n1
